Reference: US20220378809A1, “SYNTHETIC COMPOSITION FOR BALANCING THE BILE ACID PROFILE IN THE INTESTINE” (GLYCOM A/S, priority 2019, published 2022)

How the values were obtained:
[1] = system: dextran sodium sulphate-induced colitis; conditions: mice; daily oral administration; cited from earlier work
colonic microbiota = test: In vitro intestinal system simulating the colon of a human infected with C. difficile, after Vancomycin treatment; conditions: end of washout period
Source text: An in vitro intestinal system is used to simulate the colon region in a human infected with C. difficile. The system is inoculated with fresh faecal samples from a healthy individual aged >65 years. The system is run for two weeks as a set up period to stabilise the system. The system is fed daily with a feed solution and with bile acids (primarily taurocholic acid and glycocholic acid). Afterwards, two different interventions are run in parallel for 4 weeks. • Intervention: daily addition of 2′-FL and LNnT (ratio 4:1 by weight) plus an antibiotic (Vancomycin) for seven days, followed by 2′-FL and LNnT (ratio 4:1 by weight) without antibiotic for the next 3 weeks (wash out period), • Control: an antibiotic (Vancomycin) for seven days, followed by no intervention for the next 3 weeks (wash out period). During the antibiotic treatment and washout periods, both the intervention and the control receive the same daily feed including bile acids. At three time points (end of set up period, end of antibiotic treatment, and end of wash out period), the microbiota community and bile acids are measured using 16S sequencing and HPLC-UV method, respectively. The in vitro intestinal system is run as in example 1 except that the intervention is a daily addition of 2′-FL plus an antibiotic (Vancomycin) for seven days, followed by 2′-FL alone for the next 3 weeks (wash out period). The control is as in example b 1. • Control: an antibiotic (Vancomycin) for seven days, followed by no intervention for the next 3 weeks (wash out period).

intestinal cells = conditions: cited from earlier work

## C[C@H](CCC(=O)NCC(=O)O)[C@H]1CC[C@H]2[C@@H]3[C@@H](O)C[C@@H]4C[C@H](O)CC[C@]4(C)[C@H]3CC[C@]12C [GUDCA, glycoursodeoxycholic acid]
[1]
  severity of dextran sodium sulphate-induced colitis: equally lowered the severity

## 2′-fucosyllactose [2′-FL]
Colonic microbiota
  colonic bile acid metabolism: re-established
Colonic microbiota; 16S sequencing
  restoration of the microbiota: restored
Colonic microbiota; HPLC-UV
  secondary bile acids: presence of the secondary bile acid deoxycholic acid (DCA)
Colonic microbiota; HPLC-UV, versus Vancomycin-only control
  primary bile acids (cholic acid (CA) and glyco-chenodeoxycholic acid (GCDCA)): decrease in primary bile acids

## C[C@H](CCC(=O)O)[C@H]1CC[C@H]2[C@@H]3[C@H](O)C[C@@H]4C[C@H](O)CC[C@]4(C)[C@H]3CC[C@]12C [CDCA, chenodeoxycholic acid]
Intestinal cells
  permeability of intestinal cells: increased the permeability
  release of proinflammatory cytokines: increased

## C[C@H](CCC(=O)NCCS(=O)(=O)O)[C@H]1CC[C@H]2[C@@H]3[C@@H](O)C[C@@H]4C[C@H](O)CC[C@]4(C)[C@H]3CC[C@]12C [TUDCA, tauroursodeoxycholic acid]
[1]
  severity of dextran sodium sulphate-induced colitis: equally lowered the severity
